Reference: patent US11691949B2, “Quinoline sulfonamide compounds and their use as antibacterial agents” (OTAGO INNOVATION LIMITED, priority 2017, dated 2023)
Values after ≈ are worked out from the molar mass of the structure shown. Like-named read-outs stand apart in the source and are kept apart here.

Assays:
Format in all cases: cell-based
[1] = tested on: S. uberis ATCC 19436; assay: MIC by broth microdilution, S. uberis; details: Streptococcus uberis, read-out: S. uberis ATCC 19436 MIC
In short: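 The MIC against S. uberis ATCC 19436 was the lowest compound concentration showing no growth by OD600 after 24 h at 37° C. with 200 rpm shaking. Cultures grown overnight were adjusted to OD600 ~0.025 so wells held approximately 5×10^5 cfu/mL in THB. Two-fold dilution series were made at a final volume of 200 μl. Media and untreated controls were run in triplicate on each plate.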

[2] = tested on: S. aureus ATCC 6538; assay: MIC by broth microdilution, S. aureus; details: Staphylococcus aureus, read-out: S. aureus ATCC 6538 MIC
In short: (§1)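 MBC measured as cell viability after compound challenge by Miles-Misra drop plating. MIC: broth microdilution at ~5×10^5 cfu/mL final (S. aureus: TSB, CAMHB; E. coli: LB, CAMHB; optional 50 μM zinc sulphate), 24 h at 37° C, 200 rpm, lowest concentration without growth by OD600; biological triplicate.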

[3] = tested on: E. coli ATCC 10596; assay: MIC by broth microdilution, E. coli; details: Escherichia coli, read-out: E. coli ATCC 10536 MIC
In short: as §1

[4] = ATCC 10536 / ATCC 10596, No Zinc
[5] = ATCC 10536 / ATCC 10596, Zinc (50 μM)

MIC ([1]; ATCC19436, No Zinc)	MIC ([1]; ATCC19436, Zinc (50 μM))	MIC ([2]; ATCC6538, No Zinc)	MIC ([2]; ATCC6538, Zinc (50 μM))	MIC [3, 4]	MIC [3, 5]	Compound
128 mg/L (≈ 301 µM)	0.0625 mg/L (≈ 0.147 µM)	256 mg/L (≈ 602 µM)	> 256 mg/L	> 256 mg/L	> 256 mg/L	CN(C)Cc1ccc2cccc(NS(=O)(=O)c3ccc(OC(F)(F)F)cc3)c2n1 [ZDR066, N-(2-((Dimethylamino)methyl)quinolin-8-yl)-4-(trifluoromethoxy)benzenesulfonamide]
16 mg/L (≈ 42.1 µM)	1 mg/L (≈ 2.63 µM)	8 mg/L (≈ 21 µM)	8 mg/L (≈ 21 µM)	128 mg/L (≈ 337 µM)	128 mg/L (≈ 337 µM)	O=Cc1ccc2cccc(NS(=O)(=O)c3ccc(C(F)(F)F)cc3)c2n1 [ZDR019, N-(2-Formylquinolin-8-yl)-4-(trifluoromethyl)benzenesulfonamide]
> 256 mg/L	0.25 mg/L (≈ 0.626 µM)	256 mg/L (≈ 641 µM)	> 256 mg/L	> 256 mg/L	> 256 mg/L	COC(=O)c1ccc(S(=O)(=O)Nc2cccc3ccc(CN(C)C)nc23)cc1 [ZDR069, Methyl 4-(N-(2-((dimethylamino)methyl)quinolin-8-yl)sulfamoyl)benzoate]
128 mg/L (≈ 290 µM)	0.125 mg/L (≈ 0.283 µM)	32 mg/L (≈ 72.5 µM)	32 mg/L (≈ 72.5 µM)	> 256 mg/L	> 256 mg/L	CN(C)Cc1ccc2cccc(NS(=O)(=O)c3ccc(SC(F)(F)F)cc3)c2n1 [ZDR330, N-(2-((Dimethylamino)methyl)quinolin-8-yl)-4-((trifluoromethyl)thio)benzenesulfonamide]
> 256 mg/L	0.25 mg/L (≈ 0.719 µM)	> 256 mg/L	> 256 mg/L	> 256 mg/L	> 256 mg/L	CN(C)Cc1ccc2cccc(NS(=O)(=O)c3cccs3)c2n1 [ZDR080, N-(2-((Dimethylamino)methyl)quinolin-8-yl)thiophene-2-sulfonamide]
> 256 mg/L	0.5 mg/L (≈ 1.31 µM)	4 mg/L (≈ 10.5 µM)	4 mg/L (≈ 10.5 µM)	> 256 mg/L	> 256 mg/L	O=S(=O)(Nc1cccc2ccc(CO)nc12)c1ccc(C(F)(F)F)cc1 [ZDR176, N-(2-(Hydroxymethyl)quinolin-8-yl)-4-(trifluoromethyl)benzenesulfonamide]
> 256 mg/L	> 256 mg/L	> 256 mg/L	> 256 mg/L	> 256 mg/L	> 256 mg/L	CN(C)Cc1ccc2cccc(NS(=O)(=O)c3cccc(S(N)(=O)=O)c3)c2n1 [ZDR155, N-(2-((Dimethylamino)methyl)quinolin-8-yl)benzene-1,3-disulfonamide]
256 mg/L (≈ 687 µM)	0.125 mg/L (≈ 0.336 µM)	> 256 mg/L	> 256 mg/L	> 256 mg/L	> 256 mg/L	COc1ccc(S(=O)(=O)Nc2cccc3ccc(CN(C)C)nc23)cn1 [ZDR258, N-(2-((Dimethylamino)methyl)quinolin-8-yl)-6-methoxypyridine-3-sulfonamide]
> 256 mg/L	0.5 mg/L (≈ 0.886 µM)	64 mg/L (≈ 113 µM)	> 256 mg/L	64 mg/L (≈ 113 µM)	> 256 mg/L	O=S(=O)(NCCNCc1ccc2cccc(NS(=O)(=O)c3ccc(C(F)(F)F)cc3)c2n1)c1ccccc1 [ZDR181, N-(2-(((2-(Phenylsulfonamido)ethyl)amino)methyl)quinolin-8-yl)-4-(trifluoromethyl)benzenesulfonamide]
256 mg/L (≈ 642 µM)	32 mg/L (≈ 80.3 µM)	> 256 mg/L	> 256 mg/L	> 256 mg/L	> 256 mg/L	CC(=O)Nc1ccc(S(=O)(=O)Nc2cccc3ccc(CN(C)C)nc23)cc1 [ZDR072, N-(4-(N-(2-((Dimethylamino)methyl)quinolin-8-yl)sulfamoyl)phenyl)acetamide]
32 mg/L (≈ 73.2 µM)	2 mg/L (≈ 4.57 µM)	128 mg/L (≈ 293 µM)	8 mg/L (≈ 18.3 µM)	> 256 mg/L	> 256 mg/L	NC(=O)N/N=C/c1ccc2cccc(NS(=O)(=O)c3ccc(C(F)(F)F)cc3)c2n1 [ZDR118, (E)-2-((8-((4-(Trifluoromethyl)phenyl)sulfonamido)quinolin-2-yl)methylene)hydrazine-1-carboxamide]
> 256 mg/L	0.5 mg/L (≈ 1.09 µM)	> 256 mg/L	> 256 mg/L	> 256 mg/L	> 256 mg/L	O=S(=O)(Nc1cccc2ccc(CNc3ccccn3)nc12)c1ccc(C(F)(F)F)cc1 [ZDR109, N-(2-((Pyridin-2-ylamino)methyl)quinolin-8-yl)-4-(trifluoromethyl)benzenesulfonamide]
> 256 mg/L	0.25 mg/L (≈ 0.64 µM)	> 256 mg/L	256 mg/L (≈ 655 µM)	> 256 mg/L	> 256 mg/L	CN(C)Cc1ccc2cccc(NS(=O)(=O)Cc3ccc(Cl)nc3)c2n1 [ZDR505, 1-(6-Chloropyridin-3-yl)-N-(2-((dimethylamino)methyl)quinolin-8-yl)methanesulfonamide]
256 mg/L (≈ 625 µM)	0.125 mg/L (≈ 0.305 µM)	> 256 mg/L	> 256 mg/L	> 256 mg/L	> 256 mg/L	CN(C)Cc1ccc2cccc(NS(=O)(=O)c3ccccc3C(F)(F)F)c2n1 [ZDR075, N-(2-((Dimethylamino)methyl)quinolin-8-yl)-2-(trifluoromethyl)benzenesulfonamide]
64 mg/L (≈ 156 µM)	0.125 mg/L (≈ 0.305 µM)	16 mg/L (≈ 39.1 µM)	8 mg/L (≈ 19.5 µM)	> 256 mg/L	> 256 mg/L	CN(C)Cc1ccc2cccc(NS(=O)(=O)c3ccc(C(F)(F)F)cc3)c2n1 [ZDR022, N-(2-((Dimethylamino)methyl)quinolin-8-yl)-4-(trifluoromethyl)-benzenesulfonamide]
128 mg/L (≈ 294 µM)	0.125 mg/L (≈ 0.287 µM)	64 mg/L (≈ 147 µM)	256 mg/L (≈ 588 µM)	256 mg/L (≈ 588 µM)	256 mg/L (≈ 588 µM)	O=S(=O)(Nc1cccc2ccc(CN3CCCC3)nc12)c1ccc(C(F)(F)F)cc1 [ZDR407, N-(2-(Pyrrolidin-1-ylmethyl)quinolin-8-yl)-4-(trifluoromethyl)benzenesulfonamide]
> 256 mg/L	0.0625 mg/L (≈ 0.161 µM)	> 256 mg/L	> 256 mg/L	> 256 mg/L	> 256 mg/L	CSc1ccc(S(=O)(=O)Nc2cccc3ccc(CN(C)C)nc23)cc1 [ZDR257, N-(2-((Dimethylamino)methyl)quinolin-8-yl)-4-(methylthio)benzenesulfonamide]
> 256 mg/L	0.5 mg/L (≈ 1.72 µM)	256 mg/L (≈ 879 µM)	> 256 mg/L	> 256 mg/L	> 256 mg/L	C=CS(=O)(=O)Nc1cccc2ccc(CN(C)C)nc12 [ZDR500, N-(2-((Dimethylamino)methyl)quinolin-8-yl)ethenesulfonamide]
256 mg/L (≈ 642 µM)	8 mg/L (≈ 20.1 µM)	> 256 mg/L	> 256 mg/L	> 256 mg/L	> 256 mg/L	CC(=O)Nc1cccc(S(=O)(=O)Nc2cccc3ccc(CN(C)C)nc23)c1 [ZDR327, N-(3-(N-(2-((Dimethylamino)methyl)quinolin-8-yl)sulfamoyl)phenyl)acetamide]
> 256 mg/L	0.0625 mg/L (≈ 0.157 µM)	> 256 mg/L	> 256 mg/L	> 256 mg/L	> 256 mg/L	CN(C)Cc1ccc2cccc(NS(=O)(=O)c3ccc(C(C)(C)C)cc3)c2n1 [ZDR307, 4-(tert-Butyl)-N-(2-((dimethylamino)methyl)quinolin-8-yl)benzenesulfonamide]
